{"source": "paper PMC12040169", "about": "(PLOS Biology, 2025)", "data": [{"assay": "in vitro", "settings": "human, hela cells, % viability", "units": {"viability at 28.5 h, 10 µM": "%"}, "values": [{"smiles": "NC1=NNC2=C(c3ccc(Cl)cc3Cl)NNN12", "note": "[CBK093660]", "viability at 28.5 h, 10 µM": 86.4}, {"smiles": "COc1ccc(C2=C3NN=C(N)N3NN2)cc1", "note": "[CBK093662]", "viability at 28.5 h, 10 µM": 84.8}, {"smiles": "NC1=C2NC(c3cccc(C(=O)O)c3)=NN2N(c2ccccc2)N1", "note": "[CBK093663]", "viability at 28.5 h, 10 µM": 98.7}, {"smiles": "CC(C)Nc1nccnc1Sc1cccc(O)c1", "note": "[CBK093725]", "viability at 28.5 h, 10 µM": 111}, {"smiles": "CC(C)Nc1cncc(Sc2ccccc2N)n1", "note": "[CBK093726]", "viability at 28.5 h, 10 µM": 91.7}, {"smiles": "CC(C)Nc1cc(Sc2ccccc2N)ncn1", "note": "[CBK093729]", "viability at 28.5 h, 10 µM": 91.6}, {"smiles": "CC(C)Nc1nc2cc(Cl)c(Cl)cc2nc1Sc1cccc(O)c1", "note": "[CBK093732]", "viability at 28.5 h, 10 µM": 94.8}, {"smiles": "c1ccc(Sc2nccnc2N2CCCC2)nc1", "note": "[CBK093734]", "viability at 28.5 h, 10 µM": 87.7}, {"smiles": "Cc1csc(Sc2nccnc2N2CCCC2)n1", "note": "[CBK093735]", "viability at 28.5 h, 10 µM": 90.3}, {"smiles": "COCc1nnc(Sc2nccnc2N2CCCC2)s1", "note": "[CBK093736]", "viability at 28.5 h, 10 µM": 95.4}, {"smiles": "Cc1csc(Sc2cc(N3CCCC3)ncn2)n1", "note": "[CBK093745]", "viability at 28.5 h, 10 µM": 100}, {"smiles": "COCc1nnc(Sc2cc(N3CCCC3)ncn2)s1", "note": "[CBK093746]", "viability at 28.5 h, 10 µM": 88.4}, {"smiles": "Oc1cccc(Sc2cc(N3CCCC3)ncn2)c1", "note": "[CBK093749]", "viability at 28.5 h, 10 µM": 97.4}, {"smiles": "Nc1nnc(Sc2nc3ccccc3nc2N2CCCC2)s1", "note": "[CBK093750]", "viability at 28.5 h, 10 µM": 88.4}, {"smiles": "Cc1nnc(Sc2nc3ccccc3nc2N2CCCC2)s1", "note": "[CBK093751]", "viability at 28.5 h, 10 µM": 89.1}, {"smiles": "Oc1cccc(Sc2nc3ccccc3nc2N2CCCC2)c1", "note": "[CBK093753]", "viability at 28.5 h, 10 µM": 88.5}, {"smiles": "Cn1ccnc1Sc1ncccc1C(F)(F)F", "note": "[CBK093759]", "viability at 28.5 h, 10 µM": 91.2}, {"smiles": "COc1ccc(Sc2ncccc2C(F)(F)F)cc1OC", "note": "[CBK093760]", "viability at 28.5 h, 10 µM": 100}, {"smiles": "Nc1ccccc1Sc1cc(C(F)(F)F)ccn1", "note": "[CBK093761]", "viability at 28.5 h, 10 µM": 91.4}, {"smiles": "COc1ccc(Sc2cccc(C(F)(F)F)n2)cc1OC", "note": "[CBK093769]", "viability at 28.5 h, 10 µM": 94}, {"smiles": "COc1ccc(Sc2nccc(C(F)(F)F)n2)cc1OC", "note": "[CBK093772]", "viability at 28.5 h, 10 µM": 90.4}, {"smiles": "Cc1nnc(Sc2nc3ccccc3nc2C(F)(F)F)s1", "note": "[CBK093774]", "viability at 28.5 h, 10 µM": 94.8}, {"smiles": "Cc1csc(Sc2nc3ccccc3nc2C(F)(F)F)n1", "note": "[CBK093775]", "viability at 28.5 h, 10 µM": 94.9}, {"smiles": "Nc1ccccc1Sc1nc2ccccc2nc1C(F)(F)F", "note": "[CBK093776]", "viability at 28.5 h, 10 µM": 96.1}, {"smiles": "FC(F)(F)c1nc2ccccc2nc1Sc1ccccn1", "note": "[CBK093781]", "viability at 28.5 h, 10 µM": 89}, {"smiles": "FC(F)(F)c1ccnc(Sc2ccccn2)n1", "note": "[CBK093786]", "viability at 28.5 h, 10 µM": 99.3}, {"smiles": "COCc1nnc(Sc2nccc(C(F)(F)F)n2)s1", "note": "[CBK093790]", "viability at 28.5 h, 10 µM": 99.5}, {"smiles": "COc1ccc(Sc2nc3cc(Cl)c(Cl)cc3nc2NC(C)C)cc1OC", "note": "[CBK093792]", "viability at 28.5 h, 10 µM": 103}, {"smiles": "FC(F)(F)c1ccnc(Sc2ccncc2)c1", "note": "[CBK093793]", "viability at 28.5 h, 10 µM": 92.3}, {"smiles": "Nc1nnc(Sc2nc3ccccc3nc2C(F)(F)F)s1", "note": "[CBK093795]", "viability at 28.5 h, 10 µM": 94.6}, {"smiles": "Cn1ccnc1Sc1cc(C(F)(F)F)ccn1", "note": "[CBK093798]", "viability at 28.5 h, 10 µM": 80.5}, {"smiles": "Oc1cccc(Sc2nccc(C(F)(F)F)n2)c1", "note": "[CBK093801]", "viability at 28.5 h, 10 µM": 96.6}, {"smiles": "FC(F)(F)c1ccnc(Sc2nc[nH]n2)n1", "note": "[CBK093806]", "viability at 28.5 h, 10 µM": 93.1}, {"smiles": "COc1ccc(-c2ccc(OC3CCNCC3)cc2)c(OC)c1", "note": "[CBK093816T]", "viability at 28.5 h, 10 µM": 91.2}, {"smiles": "Cc1ccc2oc(-c3ccc(O)cc3)nc2c1", "note": "[CBK093878]", "viability at 28.5 h, 10 µM": 96.2}, {"smiles": "S=c1[nH]cnc2scc(-c3ccc(Cl)cc3)c12", "note": "[CBK094069]", "viability at 28.5 h, 10 µM": 76.5}, {"smiles": "Cc1c(C#N)c2ccc(O)c(CN(C)C)c2n1-c1ccccc1", "note": "[CBK094247C]", "viability at 28.5 h, 10 µM": 98.2}, {"smiles": "Cc1ccccc1/N=C1/NC(=O)/C(=C/c2ccc([N+](=O)[O-])o2)S1", "note": "[CBK094584]", "viability at 28.5 h, 10 µM": 96.6}, {"smiles": "CCOc1ccc(-c2csc(NC(=O)c3cccnc3)n2)cc1", "note": "[CBK094747]", "viability at 28.5 h, 10 µM": 89.2}, {"smiles": "O=C1CC(c2ccc(Br)cc2)Nc2ccc3ccccc3c21", "note": "(centres unmarked) [CBK094798]", "viability at 28.5 h, 10 µM": 93.4}, {"smiles": "CC(C)(C)c1ccc(-n2cc(-c3ccc(F)cc3F)nn2)cc1", "note": "[CBK094818]", "viability at 28.5 h, 10 µM": 85.4}, {"smiles": "Cc1ccc(-c2csc(NC(=O)c3ccc(F)cc3)n2)cc1", "note": "[CBK095107]", "viability at 28.5 h, 10 µM": 85.2}, {"smiles": "O=C1S/C(=C\\c2ccc(F)c(Br)c2)C(=O)N1c1cccc(Cl)c1", "note": "[CBK095450]", "viability at 28.5 h, 10 µM": 87.7}, {"smiles": "CC(C)(C)c1ccc(S(=O)(=O)N2CCSC2)cc1", "note": "[CBK095672]", "viability at 28.5 h, 10 µM": 101}, {"smiles": "O=C(Nc1nnc(C(F)(F)F)s1)c1cc(Cl)ccc1Cl", "note": "[CBK095734]", "viability at 28.5 h, 10 µM": 86.3}, {"smiles": "COc1ccc(CCNC(=O)CSc2nc(N)c3c4c(sc3n2)CCCC4)cc1", "note": "[CBK095784]", "viability at 28.5 h, 10 µM": 94.2}, {"smiles": "CC(=O)Nc1ccc(N2C(=O)CSC23C(=O)Nc2ccccc23)cc1", "note": "(centres unmarked) [CBK095916]", "viability at 28.5 h, 10 µM": 91.7}, {"smiles": "CCN(CC)c1ccc(NC(=O)COc2ccccc2)cc1", "note": "[CBK096048]", "viability at 28.5 h, 10 µM": 91.9}, {"smiles": "CCOC(=O)C1CCN(S(=O)(=O)c2ccc(Cl)s2)CC1", "note": "[CBK096109]", "viability at 28.5 h, 10 µM": 94.9}, {"smiles": "C=CCn1c(S)nnc1-c1ccc(Br)cc1", "note": "[CBK096756]", "viability at 28.5 h, 10 µM": 77.3}, {"smiles": "O=C(O)c1ccccc1SC(C[N+](=O)[O-])c1ccccc1Cl", "note": "(centres unmarked) [CBK097071]", "viability at 28.5 h, 10 µM": 95.6}, {"smiles": "CCOC(=O)c1sc2nc(C)cc(C)c2c1N", "note": "[CBK097355]", "viability at 28.5 h, 10 µM": 82.9}, {"smiles": "COc1ccc(S(=O)(=O)N2CCSC2)cc1C", "note": "[CBK097882]", "viability at 28.5 h, 10 µM": 106}, {"smiles": "Nc1ncnc2sc3c(c12)CCC3", "note": "[CBK097952]", "viability at 28.5 h, 10 µM": 89.7}, {"smiles": "CCOc1ccc(/C=C2/NC(=O)NC2=O)cc1Br", "note": "[CBK098031]", "viability at 28.5 h, 10 µM": 91.6}, {"smiles": "NC(=O)c1ccc(-c2ccc(/C=C3/C(=O)NN(c4ccc(F)cc4)C3=O)o2)cc1", "note": "[CBK098345]", "viability at 28.5 h, 10 µM": 89.9}, {"smiles": "Cc1ccc(N2CCN(S(=O)(=O)c3ccc(I)cc3)CC2)c(C)c1", "note": "[CBK098562]", "viability at 28.5 h, 10 µM": 91.7}, {"smiles": "NC(=O)c1cnn(-c2cc(Oc3ccccc3)ncn2)c1N", "note": "[CBK098664]", "viability at 28.5 h, 10 µM": 105}, {"smiles": "CSc1ccccc1-n1nnnc1SCc1ccccc1", "note": "[CBK099033]", "viability at 28.5 h, 10 µM": 83}, {"smiles": "CCOc1ccccc1C(=O)Nc1ccc(O)cc1", "note": "[CBK099037]", "viability at 28.5 h, 10 µM": 91.8}, {"smiles": "COC(=O)c1ccc(NC(=S)NC(=O)c2cncc(Br)c2)cc1", "note": "[CBK099257]", "viability at 28.5 h, 10 µM": 87.9}, {"smiles": "CCCCOc1ccc(S(=O)(=O)N2CCN(c3cccc(C)c3C)CC2)cc1", "note": "[CBK099293]", "viability at 28.5 h, 10 µM": 114}, {"smiles": "Cc1ccc(Oc2cc(-n3nc(C)c(C(N)=O)c3N)ncn2)cc1", "note": "[CBK099753]", "viability at 28.5 h, 10 µM": 95.7}, {"smiles": "COc1ccc(OC)c(NS(=O)(=O)c2ccccc2)c1", "note": "[CBK099989]", "viability at 28.5 h, 10 µM": 73}, {"smiles": "COc1cc(/C=C2/SC(=O)NC2=O)cc(I)c1O", "note": "[CBK100075]", "viability at 28.5 h, 10 µM": 92.1}, {"smiles": "O=C(O)C1CCN(S(=O)(=O)c2ccc(F)cc2)CC1", "note": "[CBK100196]", "viability at 28.5 h, 10 µM": 102}, {"smiles": "Cc1ccc(C)c(N2CCN(S(=O)(=O)c3ccc(-c4ccccc4)cc3)CC2)c1", "note": "[CBK100692]", "viability at 28.5 h, 10 µM": 104}]}, {"assay": "in vitro", "settings": "human, hela cells, % viability, bulk resorufin, single well", "units": {"viability at 28.5 h, 10 µM": "%"}, "values": [{"smiles": "O=C(Nc1cccc(-c2ccc3c(c2)COC2(CCNCC2)O3)c1)c1cnccn1", "note": "[CBK093670]", "viability at 28.5 h, 10 µM": 90.5}, {"smiles": "CCc1ccc(C(=O)Nc2cccc(-c3ccc4c(c3)COC3(CCNCC3)O4)c2)cc1", "note": "[CBK093680]", "viability at 28.5 h, 10 µM": 67.5}, {"smiles": "CC1(C)CC(=O)C=C(C(=O)Nc2cccc(-c3ccc4c(c3)COC3(CCNCC3)O4)c2)O1", "note": "[CBK093704]", "viability at 28.5 h, 10 µM": 97.8}, {"smiles": "c1cc(-c2ccc3c(c2)COC2(CCNCC2)O3)c2cc[nH]c2c1", "note": "[CBK093812]", "viability at 28.5 h, 10 µM": 108}]}]}
